Source: PubChem BioAssay AID1918996 (Molecular Pharmacology Branch, DTP, NCI, 2023)

Tested on: 349418-098-R-PDC complex spheroid growth
Experiment: Anticancer human tumor 349418-098-R-PDC patient-derived lung adenocarcinoma cell line growth inhibition [AhR]
Details: for IC50: curve of first compound; for viability, T/C: stronger effect = lower value
Text: Multicellular complex tumor spheroid response to aryl hydrocarbon receptor antagonists in combination with a variety of drugs and investigational agents in selected tumor cell lines
The current study was undertaken to assess response to aryl hydrocarbon receptor antagonists in combination with standard-of-care drugs and investigational agents in solid tumor complex spheroid models. Complex spheroids include a stromal component modeled by human endothelial cells (HUVEC) and fibroblasts modeled by human mesenchymal stem cells (MSCs). The concentration ranges selected for each drug and investigational agent were based upon clinically achievable concentrations if the clinical Cmax of the agent was known.
Compounds. The drugs and investigational agents: BAY 2416964 (NSC825713), GNF351 (NSC835774), CH-223191 (NSC835775), CPI-455 (NSC825282), aza-TdCyd (NSC777586), decitabine (NSC127716), belinostat (NSC758774), entinostat (NSC756642), pevonedistat (NSC761192), tazemetostat (NSC777109), talazoparib (NSC765396), olaparib (NSC753686), selinexor (NSC780203), nedisertib (M3814, NSC802822), bortezomib (NSC756655), venetoclax (NSC766270), doxorubicin (NSC123127), elimusertib (BAY189344, NSC800525), ceralasertib (AZD6738, NSC777638), TAK-243 (NSC785004), alisertib (NSC759677), etoposide (NSC141540), topotecan (NSC609699), eribulin (NSC707389), gemcitabine (NSC613327), carboplatin (NSC241240), cisplatin (NSC119875), and SN-38 (NSC673596) were obtained from the National Cancer Institute (NCI) Developmental Therapeutics Program Chemical Repository (32). The FDA-approved anticancer drug set is available from the Developmental Therapeutics Program at https://dtp.cancer.gov/organization/dscb/obtaining/available plates.htm. […] The stock solutions were prepared in dimethyl sulfoxide (DMSO, Sigma-Aldrich, St. Louis, MO, cat. D2650), except for the platinum compounds which were prepared in saline (Quality Biological, Gaithersburg, MD, cat. 114-055-101), at 800-fold the tested concentration and stored at -70 degrees C prior to their use. All drugs and investigational agents were tested over a range starting from a high concentration at or near the clinical Cmax and decreasing in half-log increments. If the clinical Cmax for an agent had not been determined, the highest concentration tested was 10 microM (Table 1).
Cell Culture. All cells were maintained in an incubator at 37 degrees C and 5% CO2 with 95% humidity. The PDC lines were cultured according to standard operating procedures established by the NCI PDMR (https://pdmr.cancer.gov). Briefly, all PDCs were thawed and cultured in Matrigel-coated flasks prepared with a working solution of 1X Ham's F-12 nutrient mix, without supplementation (Invitrogen, Waltham, MA, cat. 11765054), 100 U/mL penicillin-streptomycin (Invitrogen, cat. 15140122), and 2.5% Matrigel (Corning Inc., Corning, NY, cat. 354248) for the first three passages. All PDCs were cultured in complete DMEM/F-12 media containing advanced DMEM/F-12 (Invitrogen, cat. 12634028), 4.9% defined fetal bovine serum, heat inactivated (HyClone Laboratories Inc., Logan, UT, cat. SH30070.03HI), 389 ng/mL hydrocortisone (Sigma-Aldrich, cat. H4001), 9.7 ng/mL human EGF recombinant protein (Invitrogen, cat. PHG0313), 23.4 microg/mL adenine (Sigma-Aldrich, cat. A2786), 97.3 U/mL penicillin-streptomycin (Invitrogen, cat. 15140122), 1.9 mM L-glutamine (Invitrogen, cat. 25030081), and 9.7 microM Y-27632 dihydrochloride (Tocris Bioscience, Bristol, United Kingdom, cat. 1254). The PDCs were cultured in complete DMEM/F12 media without 10 microM Y-27632 dihydrochloride for at least two passages prior to the screen. The established cell lines NCI-H1341 and […] were cultured in DMEM/F-12, HEPES (Invitrogen, cat. 11330032), 5% defined fetal bovine serum (HyClone Laboratories Inc., cat. SH30070.03), ITS premix universal culture supplement [insulin (5 microg/mL), transferrin (5 microg/mL), and selenious acid (5 ng/mL)] […]

[1] = second compound 0.1 µM, first compound 0.00316 µM
[2] = second compound 0.1 µM, first compound 0.01 µM
[3] = second compound 0.1 µM, first compound 0.0316 µM
[4] = second compound 0.1 µM, first compound 0.1 µM
[5] = second compound 0.316 µM, first compound 0.00316 µM
[6] = second compound 0.316 µM, first compound 0.01 µM
[7] = second compound 0.316 µM, first compound 0.0316 µM
[8] = second compound 0.316 µM, first compound 0.1 µM
[9] = second compound 1 µM, first compound 0.00316 µM
[10] = second compound 1 µM, first compound 0.01 µM
[11] = second compound 1 µM, first compound 0.0316 µM
[12] = second compound 1 µM, first compound 0.1 µM
[13] = second compound 3.16 µM, first compound 0.00316 µM
[14] = second compound 3.16 µM, first compound 0.01 µM
[15] = second compound 3.16 µM, first compound 0.0316 µM
[16] = second compound 3.16 µM, first compound 0.1 µM
[17] = second compound 10 µM, first compound 0.00316 µM
[18] = second compound 10 µM, first compound 0.01 µM
[19] = second compound 10 µM, first compound 0.0316 µM
[20] = second compound 10 µM, first compound 0.1 µM
[21] = second compound 0.1 µM, first compound 0.316 µM
[22] = second compound 0.1 µM, first compound 1 µM
[23] = second compound 0.1 µM, first compound 3.16 µM
[24] = second compound 0.1 µM, first compound 10 µM
[25] = second compound 0.316 µM, first compound 0.316 µM
[26] = second compound 0.316 µM, first compound 1 µM
[27] = second compound 0.316 µM, first compound 3.16 µM
[28] = second compound 0.316 µM, first compound 10 µM
[29] = second compound 1 µM, first compound 0.316 µM
[30] = second compound 1 µM, first compound 1 µM
[31] = second compound 1 µM, first compound 3.16 µM
[32] = second compound 1 µM, first compound 10 µM
[33] = second compound 3.16 µM, first compound 0.316 µM
[34] = second compound 3.16 µM, first compound 1 µM
[35] = second compound 3.16 µM, first compound 3.16 µM
[36] = second compound 3.16 µM, first compound 10 µM
[37] = second compound 10 µM, first compound 0.316 µM
[38] = second compound 10 µM, first compound 1 µM
[39] = second compound 10 µM, first compound 3.16 µM
[40] = second compound 10 µM, first compound 10 µM
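Further: spheroids exposed to agents for seven days before luminescence viability read.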
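Wherever viability, T/C is given: spheroids also contain HUVEC endothelial cells and human MSC stroma.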

IC50 (second compound 0.1 µM) [nM]	IC50 (second compound 0.316 µM) [nM]	IC50 (second compound 1 µM) [nM]	IC50 (second compound 3.16 µM) [nM]	IC50 (second compound 10 µM) [nM]	SMILES	viability, T/C [3] [%]	viability, T/C [4] [%]	viability, T/C [7] [%]	viability, T/C [8] [%]	viability, T/C [11] [%]	viability, T/C [12] [%]	viability, T/C [15] [%]	viability, T/C [16] [%]	viability, T/C [19] [%]	viability, T/C [20] [%]	viability, T/C [21] [%]	viability, T/C [22] [%]	viability, T/C [25] [%]	viability, T/C [26] [%]	viability, T/C [29] [%]	further results
24.6	16.9	10.6	12.2	3.67	CC[C@@]1(O)C(=O)OCc2c1cc1n(c2=O)Cc2cc3c(CN(C)C)c(O)ccc3nc2-1 + CC(CO)NC(=O)c1cc(-c2ccc(Cl)cc2)nn(-c2cnn(C)c2)c1=O	43.9	16.2	37.7	12.8	29.3	12.8	21.9	12.4	23.1	13.6						viability, T/C (second compound 0.1 µM, first compound 0.000316 µM): 90%; viability, T/C (second compound 0.1 µM, first compound 0.001 µM): 115%; viability, T/C [1]: 97.5%; viability, T/C [2]: 75.7%; viability, T/C (second compound 0.316 µM, first compound 0.000316 µM): 136%; viability, T/C (second compound 0.316 µM, first compound 0.001 µM): 118%; viability, T/C [5]: 87.8%; viability, T/C [6]: 60.9%; viability, T/C (second compound 1 µM, first compound 0.000316 µM): 118%; viability, T/C (second compound 1 µM, first compound 0.001 µM): 136%; viability, T/C [9]: 72.4%; viability, T/C [10]: 57.8%; viability, T/C (second compound 3.16 µM, first compound 0.000316 µM): 92.9%; viability, T/C (second compound 3.16 µM, first compound 0.001 µM): 93.2%; viability, T/C [13]: 83.4%; viability, T/C [14]: 56.3%; viability, T/C (second compound 10 µM, first compound 0.000316 µM): 51.1%; viability, T/C (second compound 10 µM, first compound 0.001 µM): 65%; viability, T/C [17]: 51.3%; viability, T/C [18]: 35%
727	607	503	269	136	COc1cc(C2c3cc4c(cc3C(OC3OC5COC(C)OC5C(O)C3O)C3COC(=O)C23)OCO4)cc(OC)c1O (stereo not given) + CC(CO)NC(=O)c1cc(-c2ccc(Cl)cc2)nn(-c2cnn(C)c2)c1=O	103	98	108	109	102	90.2	78.8	104	59	56.4	91.1	34.1	72.4	32.6	64.5	viability, T/C [23]: 18%; viability, T/C [24]: 12.9%; viability, T/C [27]: 16.2%; viability, T/C [28]: 11.3%; viability, T/C [30]: 29%; viability, T/C [31]: 18.7%; viability, T/C [32]: 14.6%; viability, T/C [33]: 43.2%; viability, T/C [34]: 25.1%; viability, T/C [35]: 16.6%; viability, T/C [36]: 13.5%; viability, T/C [37]: 36%; viability, T/C [38]: 22.3%; viability, T/C [39]: 14.4%; viability, T/C [40]: 14.1%
< 31.6	< 31.6	< 31.6	< 31.6	< 31.6	COc1cccc2c1C(=O)c1c(O)c3c(c(O)c1C2=O)CC(O)(C(=O)CO)CC3OC1CC(N)C(O)C(C)O1 (stereo not given) + CC(CO)NC(=O)c1cc(-c2ccc(Cl)cc2)nn(-c2cnn(C)c2)c1=O	21.8	13.4	26.6	13.2	25	14.7	19.6	14.4	18.5	12.3	3.76	0.59	3.63	0.47	3.05	viability, T/C [23]: 2.28%; viability, T/C [24]: 5.15%; viability, T/C [27]: 3.14%; viability, T/C [28]: 5.48%; viability, T/C [30]: 0.52%; viability, T/C [31]: 3.58%; viability, T/C [32]: 5.75%; viability, T/C [33]: 2.92%; viability, T/C [34]: 0.71%; viability, T/C [35]: 2.73%; viability, T/C [36]: 5.34%; viability, T/C [37]: 1.49%; viability, T/C [38]: 1.33%; viability, T/C [39]: 3.87%; viability, T/C [40]: 6.78%
135	63.3	92.2	103	44.6	Nc1ncn(C2CC(O)C(CO)O2)c(=O)n1 (stereo not given) + CC(CO)NC(=O)c1cc(-c2ccc(Cl)cc2)nn(-c2cnn(C)c2)c1=O	73.4	55.2	72	35	67.9	41.6	84.4	50.6	49.8	43.2	36.6	23.8	43.1	25.7	43.3	viability, T/C [1]: 101%; viability, T/C [2]: 90.6%; viability, T/C [5]: 108%; viability, T/C [6]: 106%; viability, T/C [9]: 78.6%; viability, T/C [10]: 67.3%; viability, T/C [30]: 28.9%; viability, T/C [13]: 55.4%; viability, T/C [14]: 64.9%; viability, T/C [33]: 30%; viability, T/C [34]: 26.8%; viability, T/C [17]: 51.9%; viability, T/C [18]: 63.9%; viability, T/C [37]: 24.8%; viability, T/C [38]: 20.1%
